Usually Ki stands for a dissociation constant, usually derived from enzyme kinetics or from competition with a known ligand. Read a high Ki as a looser hold on the target.

SMILES strings stand for the structures. Residues, ends and D or L forms follow the SMILES beside them. *: point of attachment. Adamantane1carbonyl = O=C(C12CC3CC(CC(C3)C1)C2)*

This note sets out measurements from BindingDB's records for doi:10.1016/S0960-894X(01)81014-3 (1993).

The nature of the experiment: Compound was evaluated for binding affinity against Opioid receptor delta 1 binding assay: Inactive.

`CC[C@H](C)[C@H](NC(=O)[C@H](Cc1ccc(O)cc1)NC(=O)[C@@H]1CCCN1C(=O)[C@H](CCCCN)NC(=O)C12CC3CC(CC(C3)C1)C2)C(=O)N[C@@H](CC(C)C)C(=O)O` [(S)-2-{(2S,3S)-2-[(S)-2-[((S)-1-{(S)-2-[(Adamantane-1-carbonyl)-amino]-6-amino-hexanoyl}-pyrrolidine-2-carbonyl)-amino]-3-(4-hydroxy-phenyl)-propionylamino]-3-methyl-pentanoylamino}-4-methyl-pentanoic acid] (Adamantane1carbonyl-KPYIL-OH) returned a Ki of more than 100 µM.
